From the supplement of paper PMC10307832

Key:
[1] = compound: C[C@]1(O)C[C@@H](c2nc(-c3ccc4ccc(-c5ccccc5)nc4c3)c3c(N)nccn32)C1 [Linsitinib]; test: relative viability (nuclei count vs DMSO), 5 days (fraction); higher = more cells survive
Procedure, shortened: (§1)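 Viability was defined as treated-well nuclei divided by vehicle-well nuclei, with the median taken over replicate plates. Cells from lung cancer lines sat overnight at 37 °C in 1536-well plates, received five √10-spaced library-drug doses by pinning on vehicle-anchored plates, and grew 5 days without medium change before one-step fixation, permeabilisation and Hoechst staining, 4× imaging and MetaXpress nuclear counts. Only plates with control CV under 25% and at least one doubling were kept.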

[2] = compound: Cc1ccc(C(=O)N(CCCN)[C@@H](c2nc3cc(Cl)ccc3c(=O)n2Cc2ccccc2)C(C)C)cc1 [Ispinesib]; test: as above
Procedure, shortened: as §1

Cell Line | relative viability ([1]; 0.01 µM) | relative viability ([1]; 0.03162 µM) | relative viability ([1]; 0.1 µM) | relative viability ([1]; 0.3162 µM) | relative viability ([1]; 1 µM) | relative viability ([1]; 1 µM, anchor plate) | relative viability ([2]; 0.001 µM) | relative viability ([2]; 0.003162 µM) | relative viability ([2]; 0.01 µM) | relative viability ([2]; 0.03162 µM) | relative viability ([2]; 0.1 µM)
NCI-H358 | 0.86 | 0.978 | 0.9 | 0.809 | 0.522 | 0.749 | 1.15 | 1 | 1 | 0.528 | 0.313
NCI-H2126 | 1.01 | 0.971 | 1 | 0.818 | 0.71 | 0.715 | 0.978 | 1.08 | 1.06 | 0.992 | 0.564
ChaGo-K-1 | 1.04 | 0.962 | 1.02 | 0.681 | 0.882 |  | 1.05 | 1.06 | 1.12 | 0.91 | 0.354
NCI-H1437 | 1.01 | 0.963 | 0.997 | 0.945 | 1.01 | 1.02 | 1.07 | 1.11 | 1.14 | 0.995 | 0.247
SK-LU-1 | 1.01 | 0.859 | 1.03 | 0.6 | 0.967 | 0.999 | 1.15 | 1.15 | 1.16 | 0.881 | 0.592
NCI-H838 | 0.975 | 0.905 | 0.906 | 0.493 | 0.667 | 1.06 | 1.05 | 1.03 | 1.08 | 0.747 | 0.343
NCI-H1755 | 0.976 | 1.01 | 1.01 | 0.769 | 0.915 | 0.996 | 0.972 | 1.1 | 1.1 | 0.745 | 0.351
NCI-H2228 | 0.882 | 0.873 | 0.768 | 0.752 | 0.746 | 0.741 | 1.03 | 1 | 1.38 | 0.688 | 0.344
NCI-H1915 | 1.02 | 1.04 | 1.01 | 0.828 | 0.684 | 1.07 | 0.971 | 1.09 | 1.02 | 0.451 | 0.209
NCI-H2347 | 1.09 | 1.19 | 0.981 | 0.805 | 0.942 | 0.935 | 1.03 | 1.1 | 1.13 | 0.897 | 0.87
HARA | 1.07 | 0.837 | 0.967 | 0.697 | 0.807 | 0.948 | 1.04 | 1.16 | 1.06 | 0.872 | 0.169
NCI-H2085 | 0.93 | 1 | 1.05 | 0.915 | 0.906 | 0.888 | 1.02 | 1.02 | 1.06 | 0.854 | 0.536
NCI-H650 | 0.889 | 0.996 | 0.875 |  | 0.783 | 0.914 | 1.01 | 1.14 | 1.02 | 0.629 | 0.212
NCI-H727 | 0.961 | 0.866 | 0.895 | 0.461 | 0.591 | 0.305 | 1.16 | 1.09 | 1.14 | 0.845 | 0.543
NCI-H1993 | 1.03 | 0.916 | 0.879 | 0.622 | 0.607 | 0.759 | 0.959 | 1.05 | 1.05 | 0.912 | 0.651
